Source: US8148422B2, “Sulfonamides as TRPM8 modulators” (Janssen Pharmaceutica, NV, priority 2008, dated 2012)

Biological target: T1, canine TRPM8 (Canis lupus familiaris, UniProt Q1A7N1)
T1 construct: expressed in transfected cells
Test: In vitro canine TRPM8 functional assay (Ca2+-sensitive fluorescent dye, FLIPR or FDSS, icilin challenge)
Type: cell-based
Conditions: HEK293 cells stably expressing canine TRPM8; for inhibition at 0.2 µM: 0.2 μM compound, icilin challenge; for IC50: icilin at approx. 80% maximal response, eight-point dose-response, single determinations unless otherwise noted, read-out: IC50
Procedure: The functional activity of compounds of the formula (I) was determined by measuring changes in intracellular calcium concentration using a Ca^2+-sensitive fluorescent dye. The changes in fluorescent signal were monitored by a fluorescence plate reader, either a FLIPR™ (Molecular Devices) or FDSS (Hamamatsu).
At 24 hrs prior to assay, HEK293 cells stably expressing canine TRPM8 were seeded in culture medium in black wall, clear-base poly-D-lysine coated 384-well plates (BD Biosciences, NJ, USA) and grown overnight in 5% CO2 at 37° C. On assay day, growth media was removed and cells were loaded with Calcium 3 Dye (Molecular Devices) for 35 min at 37° C., under 5% CO2 and then for 25 min at room temperature and atmosphere. Subsequently, cells were tested for agonist-induced increases in intracellular Ca^2+ levels using FLIPR™ or FDSS. Cells were challenged with a compound of the Formula (I) (at varying concentrations) and intracellular Ca^2+ was measured for 5 min prior to the addition of icilin to all wells to achieve a final concentration that produces approximately an 80% maximal response. EC50 or IC50 values for compounds of the present invention were determined from eight-point dose-response studies. Curves were generated using the average of quadruplicate wells for each data point.

T1 sequence (Q1A7N1 1-1104): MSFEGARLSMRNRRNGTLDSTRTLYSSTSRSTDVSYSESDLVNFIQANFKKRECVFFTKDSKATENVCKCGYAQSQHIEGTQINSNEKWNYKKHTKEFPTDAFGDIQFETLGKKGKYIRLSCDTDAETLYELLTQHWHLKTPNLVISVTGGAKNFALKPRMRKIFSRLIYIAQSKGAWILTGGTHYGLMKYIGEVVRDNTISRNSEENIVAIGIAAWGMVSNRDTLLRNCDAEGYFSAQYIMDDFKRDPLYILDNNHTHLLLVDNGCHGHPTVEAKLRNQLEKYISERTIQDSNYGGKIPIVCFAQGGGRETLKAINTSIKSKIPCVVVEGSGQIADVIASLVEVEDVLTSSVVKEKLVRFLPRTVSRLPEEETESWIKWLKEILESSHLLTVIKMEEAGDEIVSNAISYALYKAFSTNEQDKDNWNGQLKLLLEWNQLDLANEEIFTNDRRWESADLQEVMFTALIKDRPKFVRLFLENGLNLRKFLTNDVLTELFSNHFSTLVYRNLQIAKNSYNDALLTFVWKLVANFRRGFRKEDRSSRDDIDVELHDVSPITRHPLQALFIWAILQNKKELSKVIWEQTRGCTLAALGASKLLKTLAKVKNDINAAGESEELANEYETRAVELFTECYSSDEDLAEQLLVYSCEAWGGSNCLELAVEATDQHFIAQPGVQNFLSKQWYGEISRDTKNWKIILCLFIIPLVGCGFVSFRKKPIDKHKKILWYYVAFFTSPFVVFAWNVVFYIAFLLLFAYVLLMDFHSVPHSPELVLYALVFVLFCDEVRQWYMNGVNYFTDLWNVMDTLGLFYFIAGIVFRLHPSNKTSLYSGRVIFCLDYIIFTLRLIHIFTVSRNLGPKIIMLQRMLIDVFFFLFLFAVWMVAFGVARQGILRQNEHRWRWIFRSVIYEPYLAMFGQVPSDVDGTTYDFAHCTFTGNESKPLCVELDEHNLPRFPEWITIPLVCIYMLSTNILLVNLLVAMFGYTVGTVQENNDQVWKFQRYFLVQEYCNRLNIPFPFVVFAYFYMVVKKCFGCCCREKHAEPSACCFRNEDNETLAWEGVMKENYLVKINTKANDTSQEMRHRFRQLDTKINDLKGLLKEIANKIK

SMILES	inhibition at 0.2 µM [%]	IC50 [nM]
CC(C)CN(CCS(=O)(=O)N(Cc1ccc(OC(F)(F)F)cc1)c1sc2ccccc2c1Br)CC(C)C [Cpd 63, N-(3-Bromobenzo[b]thiophen-2-yl)-N-(4-trifluoromethoxy-benzyl)-2-(di-iso-butylamino)ethylsulfonamide]	101	6
O=S(=O)(CCN1CCCCC1)N(Cc1ccc(OC(F)(F)F)cc1)c1sc2ccccc2c1Br [Cpd 64, N-(3-Bromobenzo[b]thiophen-2-yl)-N-(4-trifluoromethoxy-benzyl)-2-(N-piperidinyl)ethylsulfonamide]	101	27
CC(=O)N1CCN(CCS(=O)(=O)N(Cc2ccc(OC(F)(F)F)cc2)c2sc3ccccc3c2Br)CC1 [Cpd 65, N-(3-Bromobenzo[b]thiophen-2-yl)-N-(4-trifluoromethoxy-benzyl)-2-(4-acetyl-1-piperazinyl)ethylsulfonamide]	101	41
O=S(=O)(CCN1CCSCC1)N(Cc1ccc(OC(F)(F)F)cc1)c1sc2ccccc2c1Br [Cpd 66, N-(3-Bromobenzo[b]thiophen-2-yl)-N-(4-trifluoromethoxy-benzyl)-2-(thiomorpholin-4-yl)ethylsulfonamide]	100	29
O=S(=O)(CCN1CCCC(F)(F)C1)N(Cc1ccc(OC(F)(F)F)cc1)c1sc2ccccc2c1Br [Cpd 67, N-(3-Bromobenzo[b]thiophen-2-yl)-N-(4-trifluoromethoxy-benzyl)-2-(3,3-difluoropiperidin-1-yl)ethylsulfonamide]	102	9
O=S(=O)(CCN1CCC(F)(F)C1)N(Cc1ccc(OC(F)(F)F)cc1)c1sc2ccccc2c1Br [Cpd 68, N-(3-Bromobenzo[b]thiophen-2-yl)-N-(4-trifluoromethoxy-benzyl)-2-(3,3-difluoropyrrolidin-1-yl)ethylsulfonamide]	102	72
Cc1c(N(Cc2ccc(F)cc2)S(=O)(=O)CCN2CCCC(F)(F)C2)sc2ccccc12 [Cpd 69, N-(3-Methyl-benzo[b]thiophen-2-yl)-N-(4-fluoro-benzyl)-2-(3,3-difluoropiperidin-1-yl)-ethylsulfonamide]	99	12
Cc1c(N(Cc2ccc(F)c(C(F)(F)F)c2)S(=O)(=O)CCN2CCCC(F)(F)C2)sc2ccccc12 [Cpd 70, N-(3-Methylbenzo[b]thiophen-2-yl)-N-(4-fluoro-3-trifluoromethyl-benzyl)-2-(3,3-difluoropiperidin-1-yl)ethylsulfonamide]	100	4
Cc1c(N(Cc2ccc(OC(F)(F)F)cc2)S(=O)(=O)CCN2CCC[C@H]2C(F)(F)F)sc2ccccc12 [Cpd 71, N-(3-Methylbenzo[b]thiophen-2-yl)-N-(4-trifluoromethoxy-benzyl)-2-[2(S)-trifluoromethyl-pyrrolidin-1-yl]ethylsulfonamide]	100	4
Cc1c(N(Cc2ccc(OC(F)(F)F)cc2)S(=O)(=O)CCN2CCC[C@@H]2C(F)(F)F)sc2ccccc12 [Cpd 72, N-(3-Methylbenzo[b]thiophen-2-yl)-N-(4-trifluoromethoxy-benzyl)-2-[2(R)-trifluoromethyl-pyrrolidin-1-yl]ethylsulfonamide]	100	10
Cc1c(N(Cc2ccc(OC(F)(F)F)cc2)S(=O)(=O)CCNCC(C)C)sc2ccccc12 [Cpd 73, N-(3-Methylbenzo[b]thiophen-2-yl)-N-(4-trifluoromethoxy-benzyl)-2-(isobutylamino)ethylsulfonamide]	19	
Cc1c(N(CCC2CC2)S(=O)(=O)CCN(C)Cc2ccccc2)sc2ccccc12 [Cpd 75, N-(3-Methylbenzo[b]thiophen-2-yl)-N-(2-cyclopropyl-ethyl)-2-(benzyl-methylamino)ethylsulfonamide]	89	59
Cc1c(N(Cc2ccc(F)cc2)S(=O)(=O)CCN(CC(C)C)CC(C)C)sc2ccccc12 [Cpd 76, N-(3-Methylbenzo[b]thiophen-2-yl)-N-(4-fluoro-benzyl)-2-(di-iso-butylamino)ethylsulfonamide]	99	25
Cc1c(N(Cc2ccc(F)cc2)S(=O)(=O)CCN(C)Cc2ccccc2)sc2ccccc12 [Cpd 77, N-(3-Methylbenzo[b]thiophen-2-yl)-N-(4-fluoro-benzyl)-2-(benzyl-methylamino)ethylsulfonamide]	97	49
Cc1c(N(CCCCC(F)(F)F)S(=O)(=O)CCN(C)Cc2ccccc2)sc2ccccc12 [Cpd 79, N-(3-Methylbenzo[b]thiophen-2-yl)-N-(5,5,5-trifluoro-n-pent-1-yl)-2-(benzyl-methylamino)ethylsulfonamide]	98	37
Cc1c(N(Cc2ccc(F)c(F)c2)S(=O)(=O)CCN(C)Cc2ccccc2)sc2ccccc12 [Cpd 81, N-(3-Methylbenzo[b]thiophen-2-yl)-N-(3,4-difluoro-benzyl)-2-(benzyl-methylamino)ethylsulfonamide]	101	36
CCCN(CCS(=O)(=O)N(Cc1ccc(OC(F)(F)F)cc1)c1sc2ccccc2c1C)CC(C)C [Cpd 82, N-(3-Methylbenzo[b]thiophen-2-yl)-N-(4-trifluoromethoxy-benzyl)-2-(isobutyl-propylamino)ethylsulfonamide]	100	16
CCN(CCS(=O)(=O)N(Cc1ccc(OC(F)(F)F)cc1)c1sc2ccccc2c1C)CC(C)C [Cpd 83, N-(3-Methylbenzo[b]thiophen-2-yl)-N-(4-trifluoromethoxy-benzyl)-2-(isobutyl-ethylamino)ethylsulfonamide]	99	17
CCOC(=O)C1CCN(CCS(=O)(=O)N(CCC2CC2)c2sc3ccccc3c2C)CC1 [Cpd 84, N-(3-Methylbenzo[b]thiophen-2-yl)-N-(2-cyclopropyl-ethyl)-2-(4-carboethoxypiperidin-1-yl)ethylsulfonamide]	97	72
CCOC(=O)C1CCN(CCS(=O)(=O)N(CCCCC(F)(F)F)c2sc3ccccc3c2C)CC1 [Cpd 85, N-(3-Methylbenzo[b]thiophen-2-yl)-N-(5,5,5-trifluoropent-1-yl)-2-(4-carboethoxypiperidin-1-yl)ethylsulfonamide]	77	81
Cc1c(N(CCCCC(F)(F)F)S(=O)(=O)CCN2CCC(C(=O)O)CC2)sc2ccccc12 [Cpd 86, N-(3-Methylbenzo[b]thiophen-2-yl)-N-(5,5,5-trifluoropent-1-yl)-2-(4-carboxypiperidin-1-yl)ethylsulfonamide]	34	
Cc1c(N(CCC2CC2)S(=O)(=O)CCN2CCC(C(=O)O)CC2)sc2ccccc12 [Cpd 87, N-(3-Methylbenzo[b]thiophen-2-yl)-N-(2-cyclopropylethyl)-2-(4-carboxypiperidin-1-yl)ethylsulfonamide]	29	
CC(=O)N(CCS(=O)(=O)N(CCCCC(F)(F)F)c1sc2ccccc2c1C)CC(C)C [Cpd 88, N-(3-Methylbenzo[b]thiophen-2-yl)-N-(5,5,5-trifluoro-n-pent-1-yl)-2-(N-acetyl-isobutylamino)ethylsulfonamide]	91	59
CCN(CCS(=O)(=O)N(CCCCC(F)(F)F)c1sc2ccccc2c1C)CC(C)C [Cpd 89, N-(3-Methylbenzo[b]thiophen-2-yl)-N-(5,5,5-tritluoro-n-pent-1-yl)-2-(ethyl-isobutylamino)ethylsulfonamide]	99	36
CCC(=O)N(CCS(=O)(=O)N(CCCCC(F)(F)F)c1sc2ccccc2c1C)CC(C)C [Cpd 90, N-(3-Methylbenzo[b]thiophen-2-yl)-N-(5,5,5-trifluoro-n-pent-1-yl)-2-(N-propionoyl-isobutylamino)ethylsulfonamide]	92	44
CCCN(CCS(=O)(=O)N(CCCCC(F)(F)F)c1sc2ccccc2c1C)CC(C)C [Cpd 91, N-(3-Methylbenzo[b]thiophen-2-yl)-N-(5,5,5-tritluoro-n-pent-1-yl)-2-(n-propyl-isobutylamino)ethylsulfonamide]	99	50
CC(=O)N(CCS(=O)(=O)N(CCC1CC1)c1sc2ccccc2c1C)CC(C)C [Cpd 92, N-(3-Methylbenzo[b]thiophen-2-yl)-N-(2-cyclopropyl-ethyl)-2-(N-acetyl-isobutylamino)ethylsulfonamide]	101	35
CCC(=O)N(CCS(=O)(=O)N(CCC1CC1)c1sc2ccccc2c1C)CC(C)C [Cpd 93, N-(3-Methylbenzo[b]thiophen-2-yl)-N-(2-cyclopropyl-ethyl)-2-(N-propionoyl-isobutylamino)ethylsulfonamide]	100	43
CCN(CCS(=O)(=O)N(CCC1CC1)c1sc2ccccc2c1C)CC(C)C [Cpd 94, N-(3-Methylbenzo[b]thiophen-2-yl)-N-(2-cyclopropyl-ethyl)-2-(ethyl-isobutylamino)ethylsulfonamide]	103	27
